Columns and labels:
[1] = refractive index (Na D-line) (dimensionless); conditions: 101.33 kPa, Liquid, Standard Abbe refractometry
[2] = 101.33 kPa, Liquid; for speed of sound: Sing-around technique in a fixed-path interferometer; for mass density: Vibrating tube method
[3] = refractive index (Na D-line) (dimensionless); xn = mol fraction of the nth substance listed; conditions: 298.15 K, 100 kPa, Liquid, Standard Abbe refractometry
[4] = xn = mol fraction of the nth substance listed; conditions: 298.15 K, 100 kPa, Liquid; for speed of sound: Frequency=3 MHz, Sing-around technique in a fixed-path interferometer; for mass density: Vibrating tube method

CN(C)C=O [dimethylformamide]
Conditions	mass density, 293.15 K [kg/m3]	mass density, 298.15 K [kg/m3]	mass density, 303.15 K [kg/m3]	refractive index, 293.15 K	refractive index, 298.15 K	refractive index, 303.15 K	speed of sound, 293.15 K [m/s]	speed of sound, 298.15 K [m/s]	speed of sound, 303.15 K [m/s]
[1]	–	–	–	1.43055	1.42828	1.42603	–	–	–
[2]	948.881	944.081	939.361	–	–	–	1476.8	1457.2	1438.2

CCCCNCCCC [dibutylamine]
Conditions	mass density, 293.15 K [kg/m3]	mass density, 298.15 K [kg/m3]	mass density, 303.15 K [kg/m3]	refractive index, 293.15 K	refractive index, 298.15 K	refractive index, 303.15 K	speed of sound, 293.15 K [m/s]	speed of sound, 298.15 K [m/s]	speed of sound, 303.15 K [m/s]
[1]	–	–	–	1.41724	1.41488	1.41253	–	–	–
[2]	759.695	755.525	751.458	–	–	–	1261.1	1241.5	1222.5

CCCNCCC [dipropylamine]
Conditions	mass density, 293.15 K [kg/m3]	mass density, 298.15 K [kg/m3]	mass density, 303.15 K [kg/m3]	refractive index, 293.15 K	refractive index, 298.15 K	refractive index, 303.15 K	speed of sound, 293.15 K [m/s]	speed of sound, 298.15 K [m/s]	speed of sound, 303.15 K [m/s]
[1]	–	–	–	1.40432	1.40139	1.39883	–	–	–
[2]	738.194	733.618	729.098	–	–	–	1209.4	1187.7	1167.2

CCCCCCN [1-hexanamine] + CN(C)C=O
Conditions	mass density, [4] [kg/m3]	refractive index, [3]	speed of sound, [4] [m/s]
x2 = 0.0506	765.582	1.41613	1307.1
x2 = 0.0992	771.096	–	1310.8
x2 = 0.1725	779.897	1.41707	1316.7
x2 = 0.2548	790.546	1.41779	1324.2
x2 = 0.3476	803.611	1.4187	1333.7
x2 = 0.4461	818.861	1.4198	1345.5
x2 = 0.55	836.751	1.42107	1360.1
x2 = 0.6022	846.551	–	1368.3
x2 = 0.6558	–	1.42257	–
x2 = 0.7056	867.688	–	1387.1
x2 = 0.7573	–	1.42411	–
x2 = 0.7996	889.217	–	1406.8
x2 = 0.8492	901.602	1.42564	1418.4
x2 = 0.8982	914.549	–	1430.4
x2 = 0.953	929.99	1.42747	1444.7

CCCCCCN [1-hexanamine]
Conditions	mass density, 293.15 K [kg/m3]	mass density, 298.15 K [kg/m3]	mass density, 303.15 K [kg/m3]	refractive index, 298.15 K	speed of sound, 293.15 K [m/s]	speed of sound, 298.15 K [m/s]	speed of sound, 303.15 K [m/s]
[1]	–	–	–	1.41577	–	–	–
[2]	764.423	760.073	755.848	–	1324	1303.6	1283.6

CCCCN [1-butanamine]
Conditions	mass density, 293.15 K [kg/m3]	mass density, 298.15 K [kg/m3]	mass density, 303.15 K [kg/m3]	refractive index, 293.15 K	refractive index, 298.15 K	refractive index, 303.15 K	speed of sound, 293.15 K [m/s]	speed of sound, 298.15 K [m/s]	speed of sound, 303.15 K [m/s]
[1]	–	–	–	1.4006	1.39786	1.395	–	–	–
[2]	737.048	732.231	727.452	–	–	–	1268.3	1246	1224.6

CCCCNCCCC [dibutylamine] + CN(C)C=O
Conditions	mass density, [4] [kg/m3]	refractive index, [3]	speed of sound, [4] [m/s]
x2 = 0.0642	761.171	–	1246.4
x2 = 0.1038	–	1.41553	–
x2 = 0.1134	765.782	–	1250.5
x2 = 0.1647	770.882	–	1255
x2 = 0.2076	–	1.41628	–
x2 = 0.2121	775.872	–	1259.5
x2 = 0.2734	782.835	–	1266.1
x2 = 0.3213	788.624	–	1271.6
x2 = 0.3608	–	1.41761	–
x2 = 0.4114	800.702	–	1283.5
x2 = 0.4526	806.766	–	1289.7
x2 = 0.4897	–	1.419	–
x2 = 0.5072	815.344	–	1298.6
x2 = 0.5574	823.977	–	1307.9
x2 = 0.5933	–	1.42034	–
x2 = 0.5996	831.688	–	1316.3
x2 = 0.6514	842.013	–	1328.1
x2 = 0.6869	849.571	–	1336.8
x2 = 0.688	–	1.42178	–
x2 = 0.7361	860.924	–	1350.4
x2 = 0.7709	–	1.42323	–
x2 = 0.7904	874.714	–	1367.5
x2 = 0.8398	–	1.42459	–
x2 = 0.8418	889.103	–	1385.9
x2 = 0.8921	904.666	–	1406.1
x2 = 0.8989	–	1.42587	–
x2 = 0.9471	923.65	–	1431
x2 = 0.9497	–	1.42706	–
x2 = 0.9738	–	1.42765	–
